{
  "source": "patent US20040185566A1",
  "about": "“Polypeptides toxic to nematodes and methods of use” (priority 2003, published 2004)",
  "key": {"SMP #1": {"target": "SMP #1 (Serratia marcescens, UniProt P23694, N428Q/P266L)", "sequence (P23694 17-487 P266L/N428Q)": "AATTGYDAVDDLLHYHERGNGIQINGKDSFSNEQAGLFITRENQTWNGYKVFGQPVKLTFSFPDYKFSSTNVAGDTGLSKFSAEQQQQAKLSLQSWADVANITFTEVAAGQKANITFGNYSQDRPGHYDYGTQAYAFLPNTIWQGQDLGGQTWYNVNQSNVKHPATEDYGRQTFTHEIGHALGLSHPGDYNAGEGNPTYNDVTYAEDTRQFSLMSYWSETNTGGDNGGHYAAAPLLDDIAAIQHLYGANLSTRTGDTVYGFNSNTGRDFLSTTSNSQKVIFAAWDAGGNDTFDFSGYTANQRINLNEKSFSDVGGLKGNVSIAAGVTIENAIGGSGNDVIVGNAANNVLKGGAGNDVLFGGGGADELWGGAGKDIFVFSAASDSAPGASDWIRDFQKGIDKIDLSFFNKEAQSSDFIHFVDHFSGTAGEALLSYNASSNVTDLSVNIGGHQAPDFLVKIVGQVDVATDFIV", "format": "biochemical, S. marcescens NRRL B-23112"}, "A. suum": {"tested_on": "A. suum", "experiment": "Assay for lytic activity against live A. suum", "conditions": "A. suum"}, "R. similis": {"tested_on": "R. similis", "experiment": "Assay for lytic activity against R. similis (microtiter plates)", "format": "in vivo", "procedure": "The assays were performed in microtiter plates. Ten microliters of R. similissuspensions were placed in microtiter plate wells. Serially diluted SMP #1 (100U in 0.1 ml stock) was added to the wells. PBS was added to a series of wells containing R. similis as a control. The nematodes were stored at 20° C. and examined for lytic effects or death at 48 and 96 hours."}},
  "note": "Like-named read-outs stand apart in the source and are kept apart here.",
  "data": [
    {"compound": "Cl.NCCc1ccc(S(=O)(=O)F)cc1", "note": "[Pefabloc SC]", "values": [
      {"measurement": "inhibition of SMP #1 proteolytic activity", "setting": "SMP #1; Pefabloc SC 2000 μ/ml", "value": "not inhibited"}
    ]},
    {"compound": "CC(C)C[C@H](NC(=O)[C@H]1O[C@@H]1C(=O)O)C(=O)NCCCCN=C(N)N", "note": "[E-64]", "values": [
      {"measurement": "inhibition of SMP #1 proteolytic activity", "setting": "SMP #1; E-64 20 μg/ml", "value": "not inhibited"}
    ]},
    {"compound": "serratiopeptidase [SMP #2, reference compound]", "values": [
      {"measurement": "lysis / mortality of the nematode on contact", "setting": "A. suum", "value": "does not lyse or cause significant mortality"},
      {"measurement": "Dead (nematodes counted)", "setting": "R. similis; 10 U/well, 10 wells, 20° C.", "value": 109},
      {"measurement": "Live (nematodes counted)", "setting": "R. similis; 10 U/well, 10 wells, 20° C.", "value": 175},
      {"measurement": "% mortality", "setting": "R. similis; 10 U/well, 10 wells, 20° C., significant difference (p < 0.05) between treatments", "value": 38, "unit": "%"},
      {"measurement": "lysis / mortality of the nematode on contact", "setting": "R. similis; R. similis", "value": "does not lyse or cause significant mortality"}
    ]},
    {"compound": "aprotinin", "values": [
      {"measurement": "inhibition of SMP #1 proteolytic activity", "setting": "SMP #1; aprotinin 4 μg/ml", "value": "not inhibited"}
    ]},
    {"compound": "O=C(O)CN(CCN(CC(=O)O)CC(=O)O)CC(=O)O", "note": "[EDTA]", "values": [
      {"measurement": "inhibition of SMP #1 proteolytic activity", "setting": "SMP #1; EDTA 9μg/ml", "value": "inhibited"}
    ]}
  ]
}
